Experimental data published in patent publication US20230339949A1, “HETEROCYCLIC SUBSTITUTED FUSED y-CARBOLINE DERIVATIVE, PREPARATION METHOD THEREFOR, INTERMEDIATE THEREOF AND USE THEREOF” (SHUJING BIOPHARMA CO., LTD, priority 2020, published 2023).
Like-named read-outs stand apart in the source and are kept apart here.

Experiments:
PK test on ICR mice = type: in vivo; conditions: mouse; male ICR mice, oral gavage, 5 mg/kg single dose, plasma
Description: Male ICR mice were administered by oral gavage administration, and blood concentration of the compound of the present disclosure in mice was measured, and PK parameters were calculated, and the pharmacokinetics of the compound of the present disclosure was evaluated.
Preparation of drug: The test compound was taken, and physiological saline was added, and ultrasonication was performed.
Administration route and dosage: administered by oral gavage, administration dosage: 5 mg/kg, administration volume: 10 mL/kg.
(§1) Administration frequency and duration: single dose.
ICR mice were stratified by body weight and then randomly grouped into 3 mice per group, and fasted overnight before the experiment. After oral gavage administration, at 0, 0.033, 0.083, 0.5, 1, 2, 4, 6 and 8 hours, […] of blood was collected from the mandibular vein or saphenous vein of mice and put into sample tubes containing the anticoagulant sodium heparin, and the sample tube was placed in wet ice, centrifuged at 4 000 r·min^−1 for 10 minutes, and the plasma was separated and cryopreserved in a refrigerator at −80° C. for testing.
The blood concentration-time data of the compound of the present disclosure measured by gavage administration were substituted into Winnonlin 8.2 program to calculate the main pharmacokinetic parameters. Tmax and Cmax were measured values, AUC0-t and AUC0-∞ values were calculated by trapezoidal method, and t1/2 was calculated by the concentration point at the end of elimination phase via semi-logarithmic drawing method.

[1] = test system: MK-801 induced hyperactivity behavior; assay: MK-801 induced hyperactivity behavior in mice; type: in vivo, ICR mice; conditions: for ED50: Mus musculus, read-out: ED50 (half effective dose)
Description: The efficacy of the compounds of the present disclosure was evaluated by high activity model of mice induced by intraperitoneal injection of MK-801.
(§2) Experimental animals: ICR mice, male, 8 mice/group, Spelford (Beijing) Biotechnology Co., Ltd.
Preparation of drug: the test compounds were taken, and pure water was added, and ultrasonication was performed.
Administration route and method: gavage administration, 10 mL/kg (body weight).
as §1
Animals were stratified by body weight and then randomly divided into blank group, model group, and administration group, and detailed information of administration is shown in the following table.
Mice were stratified according to body weight and then randomly divided into model group, blank group and each administration group. One hour after the gavage administration of solvent or drug, 0.3 mg/kg MK-801 was injected intraperitoneally (the blank group was injected with the same volume of physiological saline), and then the mice were put into an independent activity box (a black polyethylene box with the specification of 29 cm×29 cm×30 cm) for video recording for 60 minutes, and video analysis was performed at the end of the recording to evaluate the activity of the mice.
(§3) The experimental data were expressed as x±SD, and SPSS statistical software was used to test the homogeneity of variance. If the variance was homogeneous, single factor analysis of variance was performed, and Dunnett t test is used for pairwise comparison. The ED50 was calculated by nonlinear fitting with GraphPad Primis5 software.

[2] = test system: DOI-induced head-shaking behavior; assay: DOI-induced head-shaking behavior in mice; type: in vivo, ICR mice; conditions: Mus musculus; male ICR mice, single gavage dose 1 h before DOI 1 mg/kg i.p., head-shakes counted 0-20 min; read-out: ED50 (half effective dose)
Description: The efficacy of the compounds of the present disclosure was evaluated by the mice model of head-shaking behavior induced by intraperitoneal injection of (±) DOI (a hallucinogenic agent usually used to replicate anti-schizophrenic animal model).
as §2
Preparation of drug: the test compounds were taken, and solvent was added, and ultrasonication was performed.
Administration route and method: oral gavage administration, 10 mL/kg (body weight).
as §1
Animals were stratified by body weight and then randomly divided into blank group, model group, and administration groups, and detailed information of administration is shown in the following table.
Mice were stratified according to body weight and then randomly divided into model group, blank group and each administration group. One hour after the animals were gavage administration of the solvent or drugs, they were placed in a beaker (13 cm in diameter, 19 cm in height) with fresh padding, and the model drug DOI was injected intraperitoneally at a dose of 1 mg/kg. The times of head-shaking were recorded within 0-20 minutes after DOI was injected intraperitoneally.
Head-shaking behavior is defined as rapid rotational twitch of mouse's head or wet dog-like shaking, which should be different from normal hair grooming or inquiry behavior.
as §3

[3] = molecular target: T1, D2 (CHO-K1/D2L/Gα15 cells) (Homo sapiens, UniProt P14416); assay: Functional activity test on receptor (cryopreservation cells), calcium FLIPR, D2; type: cell-based; conditions: for IC50: cryopreserved CHO-K1/D2L/Gα15 cells, calcium fluorescence (FLIPR), antagonist mode vs dopamine EC80; for D2/5-HT2A ratio: ratio of D2 IC50 to 5-HT2A IC50, Test Example 1
T1 construct: expressed in transfected cells; host or cells: CHO-K1 (CHO-K1/D2L/Gα15, cryopreserved cells)
Description: Test Example 1: Functional Activity Test of Each Compound on Receptor (Cryopreservation Cells) [table] • (1) Cells was taken out from a liquid nitrogen tank, and the tube cap was loosened and inverted to make the liquid nitrogen flow out of the tube, then the cryopreservation tube was tightened. • (2) The cryopreservation tube was shaken rapidly at 37° C. […] • (1) Preparation of 250 mM probenecid solution: 1 mL experimental buffer was added into a tube containing 77 mg powder, and the powder was dissolved by vortex oscillation. • (2) Preparation of 2× fluorescent probe solution: A bottle of fluorescent probe dry powder was taken out to balance to room temperature, and 10 mL of experimental buffer solution and 200 μL of 250 mM probenecid solution were added thereto, and the bottle was scrolled and let stand for 5 minutes to ensure complete dissolution, and then the bottle was scrolled again. • a) Preparation of agonist compound plate (test of EC80): […] The compound to be tested was diluted 3-fold at 10 concentration points using experimental buffer in the compound plate (Greiner-781280), with an initial concentration of 3 μM and 30 μL per well; the antagonistic positive compounds (Spiperone and Ketanserin) were diluted 3-fold at 10 concentration points using experimental buffer, with an initial concentration of 1 μM and 30 μL per well. DMSO concentration was not higher than 3%. • (2) Cell preparation: Cells was taken out from the incubator, and 20 μL of prepared 2× fluorescent probe solution was added thereto, incubated at 37° C. for 50 minutes, then equilibrated at room temperature for 10 minutes. • a) The cell plate and agonist compound plate were put into the instrument, and the program of reading the plate was run. • b) 10 μL was transferred from the agonist compound plate to the cell plate, and fluorescence signal was read. • c) The EC80 of agonist was calculated using Screenworks software and 6×EC80 concentration was prepared for later use.

[4] = molecular target: T2, 5-HT2A (CHO-K1/5HT2A cells) (Homo sapiens, UniProt P28223); assay: Functional activity test on receptor (cryopreservation cells), calcium FLIPR, 5-HT2A; type: cell-based
T2 construct: expressed in transfected cells; host or cells: CHO-K1 (CHO-K1/5HT2A, cryopreserved cells)
Description: • (1) Cells was taken out from a liquid nitrogen tank, and the tube cap was loosened and inverted to make the liquid nitrogen flow out of the tube, then the cryopreservation tube was tightened. • (2) The cryopreservation tube was shaken rapidly at 37° C. […] 20 μL cell suspension was taken out and counted by cell counter. • (6) Dilution according to the specified conditions: 1×10^6 cells /mL, 20 μL cell suspension was added into each well of the cell plate, and finally the concentration of each well is 20,000 cells/well sequentially. • (7) The cell plate was cultured in an incubator with 5% CO2 and at 37° C. for 16-24 hours. […]
• a) The cell plate and agonist compound plate were put into the instrument, and the program of reading the plate was run. • b) 10 μL was transferred from the agonist compound plate to the cell plate, and fluorescence signal was read. • c) The EC80 of agonist was calculated using Screenworks software and 6×EC80 concentration was prepared for later use. […]

[5] = male ICR mice, single gavage dose 1 h before MK-801 0.3 mg/kg i.p., activity recorded 60 min

T1 sequence (P14416 whole entry): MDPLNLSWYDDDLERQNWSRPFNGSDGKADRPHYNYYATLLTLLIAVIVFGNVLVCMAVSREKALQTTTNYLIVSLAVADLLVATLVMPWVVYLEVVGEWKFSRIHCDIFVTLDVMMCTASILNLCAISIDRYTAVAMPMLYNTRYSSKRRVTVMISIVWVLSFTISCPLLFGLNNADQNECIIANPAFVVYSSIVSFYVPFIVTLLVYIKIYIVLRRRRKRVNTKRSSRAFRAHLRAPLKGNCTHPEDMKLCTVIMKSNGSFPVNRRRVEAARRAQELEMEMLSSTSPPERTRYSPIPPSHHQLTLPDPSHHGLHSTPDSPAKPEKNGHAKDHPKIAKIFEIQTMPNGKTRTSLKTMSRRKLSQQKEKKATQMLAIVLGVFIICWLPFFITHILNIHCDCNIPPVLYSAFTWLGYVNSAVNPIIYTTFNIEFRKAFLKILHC
T2 sequence (P28223 whole entry): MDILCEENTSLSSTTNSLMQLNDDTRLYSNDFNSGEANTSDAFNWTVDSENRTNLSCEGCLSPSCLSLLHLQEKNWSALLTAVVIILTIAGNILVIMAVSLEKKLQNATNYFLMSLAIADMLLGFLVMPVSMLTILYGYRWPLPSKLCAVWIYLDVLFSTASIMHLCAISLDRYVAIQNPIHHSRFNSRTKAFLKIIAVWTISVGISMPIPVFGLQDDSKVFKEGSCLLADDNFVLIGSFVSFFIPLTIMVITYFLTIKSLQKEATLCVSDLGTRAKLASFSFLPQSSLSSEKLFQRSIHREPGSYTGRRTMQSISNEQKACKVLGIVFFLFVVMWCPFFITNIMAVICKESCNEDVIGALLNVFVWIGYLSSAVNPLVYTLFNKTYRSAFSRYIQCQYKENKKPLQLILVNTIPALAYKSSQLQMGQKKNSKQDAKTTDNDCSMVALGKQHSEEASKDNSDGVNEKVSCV

Compound	AUC(0-inf) (PK test on ICR mice)	AUC(0-t) (PK test on ICR mice)	Cmax (PK test on ICR mice)	Tmax (PK test on ICR mice)	half-life (PK test on ICR mice)	ED50 [1, 5]	MED (lowest effective dose) [1, 5]	ED50 [2]	IC50 [3]	D2/5-HT2A ratio [3]	IC50 [4]	ED50 [1]	IC50 ([4]; cryopreserved CHO-K1/5HT2A cells, calcium fluorescence (FLIPR), antagonist mode vs serotonin EC80, read-out: 5-HT2A IC50)
CN1C(=O)CN2c3c1cccc3[C@]1(C)CN(CCCC(=O)c3ccc(F)cc3)CC[C@H]21 [Embodiment 1-A, (6bR,10aS)-8-(4-(4-fluorophenyl)-4-oxobutyl)-3,6b-dimethyl-6b,7,8,9,10,10a-hexahydro-1H-pyrido[3′,4′:4,5]pyrrolo [1,2,3-de]quinoxalin-2(3H)-one]	190 ng·h/mL	155 ng·h/mL	109 ng/mL	0.17 h	3.14 h	0.08 mg/kg	0.03 mg/kg	0.024 mg/kg	–	–	–	–	–
CN1C(=O)CN2c3c1cccc3C1(C)CN(CCCC(=O)c3ccc(F)cc3)CCC21 (centres unmarked) [Embodiment 1, 8-(4-(4-fluorophenyl)-4-oxobutyl)-3,6b-dimethyl-6b,7,8,9,10,10a-hexahydro-1H-pyrido[3′,4′:4,5]pyrrolo[1,2,3-de]quinoxalin-2(3H)-one]	–	–	–	–	–	–	0.1 mg/kg	–	662 nM	13.09	50.5 nM	0.11 mg/kg	–
CN1CCN2c3c(cccc31)[C@@H]1CN(CCCC(=O)c3ccc(F)cc3)CC[C@@H]12 [ITI-007, Lumateperone, reference compound]	59.1 ng·h/mL	39.3 ng·h/mL	13.5 ng/mL	0.28 h	5 h	1.03 mg/kg	1 mg/kg	–	569 nM	4.75	–	–	120 nM
